Assay results from PubChem BioAssay AID1963423 (Molecular Pharmacology Branch, DTP, NCI, 2024).
pIC50: −log10 of the molar value.

Test system: 439559-082-T-J2-PDC complex spheroid growth
Test: Anticancer human tumor 439559-082-T-J2-PDC patient-derived colon adenocarcinoma cell line growth inhibition [Asc]
Conditions: for pIC50: curve of first compound; for viability, T/C: stronger effect = lower value; active means viability on the fitted dose curve at most 10% of control; inactive means the rest
Procedure, shortened: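 Tumor cells were grown as multicellular spheroids with stromal HUVEC and mesenchymal stem cells and treated singly or in combination. Concentrations fell in half-log steps from the clinical Cmax, or from 10 microM where none was known.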
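Further: spheroids exposed to agents for 7 days starting day 3 after seeding.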
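Wherever viability, T/C is given: percent of DMSO vehicle control viability with 100% = vehicle.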

C=C(F)C(=O)N1CCN(c2nc(OCC3CCCN3C)nc3c2CCN(c2cccc4cccc(Cl)c24)C3)CC1CC#N (stereo not given) + Cc1c(S(C)(=O)=O)c(-c2cc(F)cc(N3CCN(c4ccc(NS(=O)(=O)c5ccc(NC(CCN6CCC(C(=O)OCCCP(=O)(O)O)CC6)CSc6ccccc6)c(S(=O)(=O)C(F)(F)F)c5)cc4)CC3)c2)c(-c2ccc(Cl)cc2)n1C(C)C
5.50: pIC50 (second compound 3.16 µM)
active: viability, T/C (second compound 0.316 µM, first compound 10 µM) 4.6% | viability, T/C (second compound 1 µM, first compound 10 µM) 0.51% | viability, T/C (second compound 3.16 µM, first compound 10 µM) 0.43% | viability, T/C (second compound 10 µM, first compound 10 µM) 2.9%
5.29: pIC50 (second compound 0.1 µM)
5.38: pIC50 (second compound 0.316 µM) | pIC50 (second compound 1 µM)
5.56: pIC50 (second compound 10 µM)
inactive: viability, T/C (second compound 0.1 µM, first compound 0.0316 µM) 96.8% | viability, T/C (second compound 0.1 µM, first compound 0.1 µM) 107% | viability, T/C (second compound 0.1 µM, first compound 0.316 µM) 95% | viability, T/C (second compound 0.1 µM, first compound 1 µM) 88.6% | viability, T/C (second compound 0.1 µM, first compound 3.16 µM) 78.4% | viability, T/C (second compound 0.1 µM, first compound 10 µM) 14.2% | viability, T/C (second compound 0.316 µM, first compound 0.0316 µM) 95.3% | viability, T/C (second compound 0.316 µM, first compound 0.1 µM) 106% | viability, T/C (second compound 0.316 µM, first compound 0.316 µM) 98.5% | viability, T/C (second compound 0.316 µM, first compound 1 µM) 77.7% | viability, T/C (second compound 0.316 µM, first compound 3.16 µM) 69.2% | viability, T/C (second compound 1 µM, first compound 0.0316 µM) 95.8% | viability, T/C (second compound 1 µM, first compound 0.1 µM) 94.5% | viability, T/C (second compound 1 µM, first compound 0.316 µM) 103% | viability, T/C (second compound 1 µM, first compound 1 µM) 84.5% | viability, T/C (second compound 1 µM, first compound 3.16 µM) 66.6% | viability, T/C (second compound 3.16 µM, first compound 0.0316 µM) 79.1% | viability, T/C (second compound 3.16 µM, first compound 0.1 µM) 95.3% | viability, T/C (second compound 3.16 µM, first compound 0.316 µM) 93.4% | viability, T/C (second compound 3.16 µM, first compound 1 µM) 71.7% | viability, T/C (second compound 3.16 µM, first compound 3.16 µM) 51.6% | viability, T/C (second compound 10 µM, first compound 0.0316 µM) 68% | viability, T/C (second compound 10 µM, first compound 0.1 µM) 85.8% | viability, T/C (second compound 10 µM, first compound 0.316 µM) 86.3% | viability, T/C (second compound 10 µM, first compound 1 µM) 65.8% | viability, T/C (second compound 10 µM, first compound 3.16 µM) 48.5%

CCN1C(C(=O)NC23CCC(C(=O)O)(CC2)CC3)C(c2cccc(Cl)c2F)C2(C(=O)Nc3cc(Cl)ccc32)C12CCCCC2 (stereo not given) + Cc1c(S(C)(=O)=O)c(-c2cc(F)cc(N3CCN(c4ccc(NS(=O)(=O)c5ccc(NC(CCN6CCC(C(=O)OCCCP(=O)(O)O)CC6)CSc6ccccc6)c(S(=O)(=O)C(F)(F)F)c5)cc4)CC3)c2)c(-c2ccc(Cl)cc2)n1C(C)C
inactive: viability, T/C (second compound 0.1 µM, first compound 0.00949 µM) 96.8% | viability, T/C (second compound 0.1 µM, first compound 0.03 µM) 104% | viability, T/C (second compound 0.1 µM, first compound 0.0949 µM) 102% | viability, T/C (second compound 0.1 µM, first compound 0.3 µM) 98.6% | viability, T/C (second compound 0.1 µM, first compound 0.949 µM) 95.4% | viability, T/C (second compound 0.1 µM, first compound 3 µM) 93.1% | viability, T/C (second compound 0.316 µM, first compound 0.00949 µM) 103% | viability, T/C (second compound 0.316 µM, first compound 0.03 µM) 104% | viability, T/C (second compound 0.316 µM, first compound 0.0949 µM) 102% | viability, T/C (second compound 0.316 µM, first compound 0.3 µM) 87.8% | viability, T/C (second compound 0.316 µM, first compound 0.949 µM) 97.9% | viability, T/C (second compound 0.316 µM, first compound 3 µM) 86.2% | viability, T/C (second compound 1 µM, first compound 0.00949 µM) 90.8% | viability, T/C (second compound 1 µM, first compound 0.03 µM) 97% | viability, T/C (second compound 1 µM, first compound 0.0949 µM) 99.7% | viability, T/C (second compound 1 µM, first compound 0.3 µM) 84.5% | viability, T/C (second compound 1 µM, first compound 0.949 µM) 88.5% | viability, T/C (second compound 1 µM, first compound 3 µM) 79.3% | viability, T/C (second compound 3.16 µM, first compound 0.00949 µM) 81.5% | viability, T/C (second compound 3.16 µM, first compound 0.03 µM) 92% | viability, T/C (second compound 3.16 µM, first compound 0.0949 µM) 91.4% | viability, T/C (second compound 3.16 µM, first compound 0.3 µM) 89% | viability, T/C (second compound 3.16 µM, first compound 0.949 µM) 82% | viability, T/C (second compound 3.16 µM, first compound 3 µM) 67.8% | viability, T/C (second compound 10 µM, first compound 0.00949 µM) 69.9% | viability, T/C (second compound 10 µM, first compound 0.03 µM) 77.7% | viability, T/C (second compound 10 µM, first compound 0.0949 µM) 74.3% | viability, T/C (second compound 10 µM, first compound 0.3 µM) 69.5% | viability, T/C (second compound 10 µM, first compound 0.949 µM) 74.1% | viability, T/C (second compound 10 µM, first compound 3 µM) 57.3%
< 5.52: pIC50 (second compound 0.1 µM) | pIC50 (second compound 0.316 µM) | pIC50 (second compound 1 µM) | pIC50 (second compound 3.16 µM) | pIC50 (second compound 10 µM)
